# From patent publication EP0247507A2, “Composition for transdermal therapeutical systems of high-ceiling diuretics, and process for producing it” (priority 1986, dated 1987)
# Test system: Ratte
# Assay: Salidiuretic effect in the rat (urine volume, Na, K, Cl excretion) after percutaneous (TTS) or oral administration
# Type: in vivo
# Excerpt: Die folgenden Beispiele sollen die Erfindung erläutern. Die Zusammensetzungen wurden durch Mischen der Wirkstoffe mit der Grundlage in einem Rührwerk mit eingebautem Homogenisator erhalten. Als transdermale therapeutische Systeme wurden aus dem deutschen Gebrauchsmuster 84 07 036 bekannte Pflasterpackungen verwendet.
# [1] = Piretanid 20 mg/rat p.o. (suspended in 2 % aqueous starch solution), collection period 1 - 5 h, n = 2
# [2] = Piretanid 20 mg/rat p.o. (suspended in 2 % aqueous starch solution), collection period 1 - 24 h, n = 2
# [3] = Piretanid 20 mg/rat p.o. (suspended in 2 % aqueous starch solution), collection period 6 - 24 h, n = 2
# [4] = Furosemid 5 mg/rat p.o. (suspended in 2 % aqueous starch solution), collection period 1 - 5 h, n = 4
# [5] = Furosemid 5 mg/rat p.o. (suspended in 2 % aqueous starch solution), collection period 1 - 24 h, n = 4
# [6] = Furosemid 5 mg/rat p.o. (suspended in 2 % aqueous starch solution), collection period 6 - 24 h, n = 4
smiles,measurement,setting,value
"NS(=O)(=O)c1cc(C(=O)O)cc(N2CCCC2)c1Oc1ccccc1 [Piretanid, 4-Phenoxy-3-(1-pyrrolidinyl)-5-sulfamoylbenzoesäure]",Chlorid,[1],8.36 mmol/kg
same,Kalium,[1],1.92 mmol/kg
same,Natrium,[1],7.07 mmol/kg
same,Urin,[1],65.0 mL/kg
same,Chlorid,[2],11.36 mmol/kg
same,Kalium,[2],11.67 mmol/kg
same,Natrium,[2],11.78 mmol/kg
same,Urin,[2],112.1 mL/kg
same,Chlorid,[3],3.00 mmol/kg
same,Kalium,[3],9.75 mmol/kg
same,Natrium,[3],4.71 mmol/kg
same,Urin,[3],47.1 mL/kg
"NS(=O)(=O)c1cc(C(=O)O)c(NCc2ccco2)cc1Cl [Furosemid, 4-Chlor-N-furfuryl-5-sulfamoylanthranilsäure]",Chlorid,[4],6.10 ± 0.62 mmol/kg
same,Kalium,[4],1.40 ± 0.16 mmol/kg
same,Natrium,[4],4.81 ± 0.75 mmol/kg
same,Urin,[4],47.8 ± 3.5 mL/kg
same,Chlorid,[5],6.59 ± 0.61 mmol/kg
same,Kalium,[5],3.88 ± 0.88 mmol/kg
same,Natrium,[5],6.03 ± 0.75 mmol/kg
same,Urin,[5],59.7 ± 6.2 mL/kg
same,Chlorid,[6],0.49 ± 0.11 mmol/kg
same,Kalium,[6],2.48 ± 0.79 mmol/kg
same,Natrium,[6],1.22 ± 0.21 mmol/kg
same,Urin,[6],11.9 ± 3.6 mL/kg
